Experimental findings from patent publication US8361516B2, “Composition comprising sarsasapogenin” (priority 2006, dated 2013) are described below.

Bounds are passed on as bounds.

One experiment relates to human adipocytes. As to the kind of experiment: Stimulation of lipid uptake in human adipocytes. Format: cell-based. From the text: 4. Stimulation of Lipid Uptake by 3T3-L1 Cells and Human Adipocytes
The results were reproduced using human adipocytes.

Experiment [1] has as its system 3T3-L1 cells. Description: Stimulation of differentiation: G3PDH activity. Type of experiment: cell-based. The following applies: mean for n = 3 tests. As to the method:
Principle: after an in vivo proliferation phase, the pre-adipocytes begin differentiating under the influence of specific endogenous factors (in particular, glucocorticoids and insulin). In vitro, those factors are included in the conventional cocktail used to trigger differentiation.
The maintenance or amplification of differentiation when the cells are subsequently cultured in a simple maintenance medium is determined by assay of glycerol-3-phosphate dehydrogenase, G3PDH (or GPDH). The enzyme is involved in energy metabolism. Its activity regularly increases through the differentiation process.
Protocol: as previously, 3T3-L1 cells were cultured to confluence, then underwent differentiation induction with the conventional cocktail and were incubated in the absence or presence of sarsasapogenin at various concentrations. After 3 days of incubation, the differentiation cocktail was replaced by culture maintenance medium in the presence or absence of sarsasapogenin. After 3 days of incubation, the cell layers were harvested and G3PDH activity determined.

In experiment [2] the test system is Human pre-adipocyte cells. Description: Gene expression profile, effect on differentiation (pre-adipocyte culture, CodeLink Whole Genome chips). Type of experiment: cell-based. As to the method:
(§1) Two studies were conducted: one addressed the effect of sarsasapogenin on differentiation using a pre-adipocyte culture; the other addressed the effect of sarsasapogenin on mature adipocytes.
(§2) Human pre-adipocyte cells were inoculated and cultured (multiplication) for 5 days. Then: • either the cells were exposed to the induction medium in the presence or absence of sarsasapogenin for 8 or 24 h before culture arrest (study of the effect of sarsasapogenin on differentiation), • or the cells were exposed to the differentiation medium for 10 days, yielding mature adipocytes, then exposed or not exposed to sarsasapogenin for 24 h (study of the effect of sarsasapogenin on maturation).
(§3) At each time point, the mRNA of the cells was extracted using a commercially available kit (Roche Kit V6—Extraction of total RNA). In parallel, solvent controls were run and subjected to extraction in the same manner. The expression profile of the gene sequences was determined using CodeLink Whole Genome chips for each sample of RNA purified. The values obtained were normalized on the controls.

For another experiment, the system named is mature adipocytes. As to the kind of experiment: Gene expression profile, effect on mature adipocytes (CodeLink Whole Genome chips). As to conditions: mature adipocytes exposed 24 h. Type of experiment: cell-based, Human. Here is the method: as §1, §2, §3
Experiment [3] relates to 3T3-L1 cells. Description: Stimulation of lipid uptake, red oil staining with image analysis. Format: cell-based. The following applies: mean for n = 3 tests. As to the method: Principle: adipocyte differentiation is a decisive stage in the transformation of pre-adipocytes into lipid-laden mature adipocytes. The intracellular accumulation of lipids is determined by conventional red oil staining (neutral lipid marker). The stained lipids can then be quantified under the microscope.
Protocol: 3T3-L1 cells were inoculated and cultured for 4 days (multiplication). This was followed by a differentiation phase (incubation with the conventional differentiation cocktail) and a maturation phase (maturation cocktail) in the absence or presence of sarsasapogenin at various concentrations.
At the end of that period, the cells were washed, fixed and stained with red oil. The cell layers were digitally photographed and the red staining quantified by image analysis.
The percentage red oil areas, shown in table 1, were expressed relative to the untreated control cells and the test was validated by comparison with pioglitazone (10 μM), the positive control for differentiation stimulation.

Experiment [4] concerns 3T3-L1 cells. As to the kind of experiment: Residual proliferation capability during the differentiation phase (Hoechst test). As to conditions: 3 days with differentiation cocktail. Format: cell-based. As to the method: The pre-adipocytes undergo a multiplication phase (clonal expansion) before beginning to differentiate.
A product stimulating proliferation would thus enable adipocytes that have already entered the differentiation phase to maintain a replication capability.
Protocol: 3T3-L1 cells were inoculated and cultured to confluence over 4 days (clonal expansion). The conventional differentiation cocktail was added to the culture and the cells were incubated in the absence (control) or in the presence of rising concentrations of sarsasapogenin for 3 days. Following incubation, the cell layers were harvested and subjected to a Hoechst test to quantify cell proliferation vs. the proliferation of the control cells and the cells incubated in the presence of pioglitazone (positive control).

Where [5] appears, read: time points 8 and 24 h of differentiation.
The mark [6] stands for this setting: values normalized on the controls, time point not stated.

As for `C[C@H]1CC[C@@]2(OC1)O[C@H]1C[C@H]3[C@@H]4CC[C@@H]5C[C@@H](O)CC[C@]5(C)[C@H]4CC[C@]3(C)[C@H]1[C@@H]2C` [Sarsasapogenin, (3β, 5β, 25-S)-Spirostan-3-ol], the “lipid incorporation results in human adipocytes” value in the experiment with human adipocytes is listed as “reproduced”. The “Change in G3PDH activity vs. control (%)” value is “+103% (p < 0.01)” in the experiment with 3T3-L1 cells [1] (5 μM), “+201% (p < 0.01)” in the experiment on 3T3-L1 cells [1] (10 μM), “+429% (p < 0.01)” in the experiment with 3T3-L1 cells [1] (15 μM) and “+535% (p < 0.01)” in the experiment with 3T3-L1 cells [1] (17.5 μM). In addition, in experiment [2] (after 8 and 24 h of differentiation, normalized on solvent controls), the “activation of the gene coding for protein MNT (MAX binding protein)” value is listed as “induces activation”. Further, the “cyclin D3 gene up-regulation” value in experiment [2] (normalized on the controls) is reported as “markedly up-regulated”. For the same compound, in experiment [2] (normalized on the controls), the “gene coding for Kruppel-like factor 5 (KLF5)” value is given as “increase”. For the same compound, in experiment [2] (time point 24 h, normalized on the controls), the “induction of NPTXR / pentraxin-related gene” value is recorded as greater than 7. In addition, in experiment [2] (setting [5]), the SLC2A5/GLUT5 gene activation entry was “activated”. Further, the “gene RAFTLIN activation” value in experiment [2] (setting [5]) is on record as “activated”. The “induction of adipose differentiation-related protein (ADRP) or adipophilin” value in experiment [2] (values normalized on the controls, study and time point not stated) is greater than 4. In addition, the “gene COPS3 up-regulation” value in experiment [2] (setting [6]) is reported as greater than 5. Also, in experiment [2] (setting [6]), the “gene COPS5 up-regulation” value was greater than 5. For the same compound, in experiment [2] (setting [6]), the “increase in KLK10 (kallikrein)” value is reported as greater than 10. Also, the “status of gene p21” value in the experiment on mature adipocytes is “activated status of gene p21 was maintained”. Moreover, the “% change in red oil content vs. control” value was “+135%” with 3T3-L1 cells [3] (5 μM); “+274%” in the experiment with 3T3-L1 cells [3] (10 μM); “+492%” in the experiment on 3T3-L1 cells [3] (17.5 μM); “greater than 492%” with 3T3-L1 cells [3] (17.5 μM, listed as sarsasapogenin). In addition, the “Proliferation vs. Control” value in the experiment with 3T3-L1 cells [4] (5 μM) is listed as “+20.5% (p < 0.01)”; in the experiment on 3T3-L1 cells [4] (10 μM), “+31.6% (p < 0.01)”; with 3T3-L1 cells [4] (20 μM) it was “+35.2% (p < 0.01)”.
Regarding `CCc1ccc(CCOc2ccc(CC3SC(=O)NC3=O)cc2)nc1` (stereo not shown) [pioglitazone, reference compound], the “% change in red oil content vs. control” value in the experiment with 3T3-L1 cells [3] (10 μM) was “+359%”. For the same compound, the “Proliferation vs. Control” value in the experiment on 3T3-L1 cells [4] (10 μM) is given as “+49% (p < 0.01)”.
